Assay results published in patent US20010044445A1, “AZOLE INHIBITORS OF CYTOKINE PRODUCTION” (priority 1999, published 2001).

Key:
[1] = system: Human peripheral blood mononuclear cells; assay: Human Concanavalin-A Proliferation Assay (Con HU Assay); format: cell-based; conditions: Homo sapiens, PBMC, concanavalin-A stimulated human PBMC; for inhibition at 1 µM / inhibition at 10 µM / inhibition at 100 µM: 72 h, 3 days, read-out: % Inhibition of proliferation (at concentrations of 1,10, or 100 μm); for inhibition at 1 µM: concentration 1 μm (in parentheses in the cell); for inhibition at 10 µM: concentration 10 μm (in parentheses in the cell); for IC50: tritiated thymidine; for inhibition at 100 µM: concentration 100 μm (in parentheses in the cell)
How it was run: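 Histopaque-isolated human PBMC (50,000/well) were pre-incubated 15 min with compounds, then stimulated with concanavalin-A at 2.5 μg/ml final for 3 days at 37 °C, 5% CO2. Proliferation measured by 6 h pulse with 0.5 μCi/well [3H]thymidine and beta counting.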

| Structure (SMILES) | melting point [°C] | inhibition at 1 µM [1] [%] | inhibition at 10 µM [1] [%] | IC50 [1] [nM] | inhibition at 100 µM [1] [%] |
| --- | --- | --- | --- | --- | --- |
| Nc1ccc(C(=O)Nc2ccc(-n3nc(C(F)(F)F)cc3C(F)(F)F)cc2)cc1 [Example 59, 4-Amino-N-[4-[3,5-bis(trifluoromethyl)-1H-pyrazol-1-yl]phenyl]benzamide] | > 240 | 54 |  |  |  |
| O=C(Nc1ccc(-n2nc(C(F)(F)F)cc2C(F)(F)F)nc1)c1ccccc1Cl [Example 260, N-[2-[3,5-bis(trifluoromethyl)-1H-pyrazol-1-yl]-5-pyridinyl]-2-chlorobenzamide] | 156 to 159 |  | 96 | 369 |  |
| CS(=O)(=O)c1ccc(C(=O)Nc2ccc(-n3nc(C(F)(F)F)cc3C(F)(F)F)cc2)cc1 [Example 109, N-[4-[3,5-bis(trifluoromethyl)-1H-pyrazol-1-yl]phenyl]-4-(methylsulfonyl)benzamide] | 216 to 218 | 45 |  |  |  |
| O=C(Nc1ccc(-n2nc(C(F)(F)F)cc2C(F)(F)F)cc1)c1cc(F)cc(F)c1F [Example 231, N-[4-[3,5-bis(trifluoromethyl)-1H-pyrazol-1-yl]phenyl]-2,3,5-trifluorobenzamide] | 169 to 170 |  | 100 | 25 |  |
| O=C(Nc1ccc(-n2nc(C(F)(F)F)cc2C(F)(F)F)cc1)c1ccc(O)c([N+](=O)[O-])c1 [Example 180, N-[4-[3,5-bis(trifluoromethyl)-1H-pyrazol-1-yl]phenyl]-4-hydroxy-3-nitrobenzamide] | 193 to 194 |  | 95 | 2870 |  |
| Cc1noc(C)c1C(=O)Nc1ccc(-n2nc(C(F)(F)F)cc2C(F)(F)F)c(C(F)(F)F)c1 [Example 275, N-[4-[3,5-bis(trifluoromethyl)-1H-pyrazol-1-yl]-3-(trifluoromethyl)phenyl]-3,5-dimethyl-4-isoxazolecarboxamide] | 61 to 63 | 8 |  |  |  |
| Fc1ccc(NCc2ccc(-n3nc(C(F)(F)F)cc3C(F)(F)F)cc2)cc1 [Example 94, 4-[3,5-Bis(trifluoromethyl)-1H-pyrazol-1-yl]-N-(4-fluorophenyl)benzenemethanamine] | 102 to 103 |  | 3 |  |  |
| O=C(Nc1ccc(F)cc1F)c1ccc(-n2nc(C(F)(F)F)cc2C(F)(F)F)cc1 [Example 187, 4-[3,5-Bis(trifluoromethyl)-1H-pyrazol-1-yl]-N-(2,4-difluorophenyl)benzamide] | 176 to 177 | 86 |  | 362 |  |
| COc1cncc(Cl)c1C(=O)Nc1ccc(-n2nc(C(F)(F)F)cc2C(F)(F)F)cc1 [Example 291, N-(4-(3,5-bis(trifluoromethyl)-1H-pyrazol-1-yl)phenyl)-3-chloro-5-methoxyisonicotinamide] | 187 to 188 |  |  | 411 |  |
| O=C(/C=C/c1ccccc1Cl)Nc1ccc(-n2nc(C(F)(F)F)cc2C(F)(F)F)cc1 [Example 21, (E)-N-[4-[3,5-bis(trifluoromethyl)-1H-pyrazol-1-yl]phenyl]-3-(2-chlorophenyl)-2-propenamide] | 173 to 175 | 2 |  |  |  |
| CSc1cc(C(F)(F)F)nn1-c1ccc(NC(=O)c2cccnc2F)cc1 [Example 316, 2-fluoro-N-(4-(5-(methylsulfanyl)-3-(trifluoromethyl)-1H-pyrazol-1-yl)phenyl)nicotinamide] | 167 to 168 |  |  | 41 |  |
| CN(C)c1cccc(C(=O)Nc2ccc(-n3nc(C(F)(F)F)cc3C(F)(F)F)cc2)c1 [Example 88, N-[4-[3,5-bis(trifluoromethyl)-1H-pyrazol-1-yl]phenyl]-3-(dimethylamino)benzamide] | 180 to 181 | 29 |  |  |  |
| O=C(Nc1cccc(-n2nc(C(F)(F)F)cc2C(F)(F)F)c1)c1c(F)cccc1F [Example 224, N-[3-[3,5-bis(trifluoromethyl)-1H-pyrazol-1-yl]phenyl]-2,6-difluorobenzamide] | 142 to 143 | 2 |  |  |  |
| O=C(Nc1ccc(-n2nc(C(F)(F)F)cc2C(F)(F)F)cc1)c1cnns1 [Example 244, N-[4-[3,5-bis(trifluoromethyl)-1H-pyrazol-1-yl]phenyl]-1,2,3-thiadiazole-5-carboxamide] | 213 to 214 |  | 94 | 523 |  |
| COc1ccc(C(=O)Nc2ccc(-n3nc(C(F)(F)F)cc3C(F)(F)F)cc2)c(Cl)c1 [Example 215, N-[4-[3,5-bis(trifluoromethyl)-1H-pyrazol-1-yl]phenyl]-2-chloro-4-methoxybenzamide] | 140 to 143 |  | 100 | 126 |  |
| O=C(Nc1ccc(-n2nc(C(F)(F)F)cc2C(F)(F)F)cc1)c1ccccc1C(=O)c1ccccc1 [Example 22, 2-Benzoyl-N-[4-[3,5-bis(trifluoromethyl)-1H-pyrazol-1-yl]phenyl]benzamide] | 204 to 205 | 14 |  |  |  |
| O=C(Nc1ccc(-n2nc(C(F)(F)F)cc2C(F)(F)F)cc1)c1cccc(F)c1 [Example 146, N-[4-[3,5-bis(trifluoromethyl)-1H-pyrazol-1-yl]phenyl]-3-fluorobenzamide] | 148 to 151 |  |  | 269 | 98 |
| Cc1nnsc1C(=O)Nc1ccc(-n2nc(-c3nccs3)cc2C#N)cc1 [Example 340, N-(4-(5-cyano-3-(1,3-thiazol-2-yl)-1H-pyrazol-1-yl)phenyl)-4-methyl-1,2,3-thiadiazole-5-carboxamide] | 230 |  |  | 251 |  |
| O=C(Nc1ccc(-n2nc(C(F)(F)F)cc2C(F)(F)F)cc1)c1cc(Cl)ccc1Cl [Example 208, N-[4-[3,5-bis(trifluoromethyl)-1H-pyrazol-1-yl]phenyl]-2,5-dichlorobenzamide] | 154 to 156 |  | 99 | 149 |  |
| N#Cc1ccc(C(=O)Nc2cccc(-n3nc(C(F)(F)F)cc3C(F)(F)F)c2)cc1 [Example 238, N-[3-[3,5-bis(trifluoromethyl)-1H-pyrazol-1-yl]phenyl]-4-cyanobenzamide] | 133 to 134 | 3 |  |  |  |
| COc1cc(Cl)ccc1C(=O)Nc1ccc(-n2nc(C(F)(F)F)cc2C(F)(F)F)cc1 [Example 176, N-[4-[3,5-Bis(trifluoromethyl)-1H-pyrazol-1-yl]phenyl]-4-chloro-2-methoxybenzamide] | 178 to 180 | 12 |  |  |  |
| FC(F)(F)c1cc(C(F)(F)F)n(-c2ccc(NCc3ccccc3Cl)cc2)n1 [Example 82, N-[4-[3,5-bis(trifluoromethyl)-1H-pyrazol-1-yl]phenyl]-2-chlorobenzenemethanamine] | 240 |  |  | 468 | 100 |
| O=C(Nc1ccc(-n2nc(C(F)(F)F)cc2C(F)(F)F)cc1)c1ccc(F)c(C(F)(F)F)c1 [Example 195, N-[4-[3,5-bis(trifluoromethyl)-1H-pyrazol-1-yl]phenyl]-4-fluoro-3-(trifluoromethyl)benzamide] | 142 to 144 | 22 |  |  |  |
| Nc1cccc(C(=O)Nc2ccc(-n3nc(C(F)(F)F)cc3C(F)(F)F)cc2)c1 [Example 58, 3-Amino-N-[4-[3,5-bis(trifluoromethyl)-1H-pyrazol-1-yl]phenyl]benzamide] | 203 to 204 |  | 97 | 484 |  |
| O=C(Nc1c(F)cccc1F)c1ccc(-n2nc(C(F)(F)F)cc2C(F)(F)F)cc1 [Example 191, 4-[3,5-Bis(trifluoromethyl)-1H-pyrazol-1-yl]-N-(2,6-difluorophenyl)benzamide] | 187 to 188 | 99 |  | 116 |  |
| COC(=O)c1ccc(C(=O)Nc2ccc(-n3nc(C(F)(F)F)cc3C(F)(F)F)cc2)cc1 [Example 142, methyl 4-[[[4-[3,5-bis(trifluoromethyl)-1H-pyrazol-1-yl]phenyl]amino]carbonyl]benzoate] | 195 to 196 |  | 99 | 489 |  |
| O=C(Nc1ccc(F)cc1)c1ccc(-n2nc(C(F)(F)F)cc2C(F)(F)F)cc1 [Example 30, 4-[3,5-bis(trifluoromethyl)-1H-pyrazol-1-yl]-N-(4-fluorophenyl)benzamide] | 194 to 195 | 6 |  |  |  |
| O=C(Nc1ccc(-n2nc(C(F)(F)F)cc2C(F)(F)F)cc1)c1ccc(Cl)cc1O [Example 220, N-[4-[3,5-bis(trifluoromethyl)-1H-pyrazol-1-yl]phenyl]-4-chloro-2-hydroxybenzamide] | 200 to 202 |  | 100 | 4230 |  |
| O=C(Nc1ccc(-n2nc(C(F)(F)F)cc2OC(F)F)cc1)c1cccnc1F [Example 324, N-(4-(5-(difluoromethoxy)-3-(trifluoromethyl)-1H-pyrazol-1-yl)phenyl)-2-fluoronicotinamide] | 149 to 150 |  |  | 89 |  |
| Cc1noc(C)c1C(=O)Nc1ccc(-n2nc(C(F)(F)F)cc2C)cc1 [Example 283, 3,5-Dimethyl-N-[4-[5-methyl-3-(trifluoromethyl)-1H-pyrazol-1-yl]phenyl]-4-isoxazolecarboxamide] | 180 to 181 |  |  | 1040 | 99 |
